Assay results reported in article PMC10223284, “Category-Based Toxicokinetic Evaluations of Data-Poor Per- and Polyfluoroalkyl Substances (PFAS) using Gas Chromatography Coupled with Mass Spectrometry” (Toxics, 2023).
Several values for one entry are separate records, joined by “and”; a condition that tells them apart may be missing. Equal entries are not always repeated.

Columns and labels:
[1] = Abiotic loss in negative controls of the hepatocyte clearance assay (cell-free media, metabolically inactivated hepatocytes); type: in vitro ADME; settings: flag for stability failure in hepatocyte clearance assay controls (1 or Fst = fail, 0 = pass)
Method: The hepatic metabolic stability assay measures the loss of a parent compound over time in a substrate-depletion approach. Briefly, hepatocyte suspensions, after a viability assessment, were diluted in complete William’s medium E (containing dexamethasone and cell maintenance cocktail B) prior to addition to 96-well polypropylene plates containing an equal volume of media spiked with the test compound (1 μM assay concentration; assay cell density = 50,000 cells/100 μL) and maintained at 37 °C with shaking. At each time point, relevant plates were crashed with an equal volume of ice-cold acetonitrile, centrifuged, and supernatant transferred to a new plate prior to storage at <−70 °C until quantitative analysis. Controls, run in parallel, included cell-free (i.e., media only) and metabolically inactivated hepatocytes to evaluate abiotic chemical stability in the aqueous media matrix with and without cellular protein. In preliminary runs, these controls were run at T0 and T240 only. If significant instability was noted, the hepatocyte clearance assay was rerun, including cell-free samples at each time point and metabolically inactivated hepatocytes at selected time points.
Negative controls, including media only and metabolically inactivated hepatocyte controls, were included to monitor abiotic loss (i.e., background clearance) during the assay. Where significant compound loss occurred using the analysis described above, background clearance rates were calculated and used to background-adjust hepatic metabolic clearance rates. Where chemicals were cleared prior to the end of the analysis, at 240 min (T240), the corresponding negative control timepoint was used for background subtraction. Any chemicals displaying a 50% or more abiotic loss at T120 were deemed unstable and were excluded from further analyses.

in vitro = settings: both, human, plasma
human plasma [2] = assay: Chemical stability in plasma over the UC assay time course (T5hr/T1hr); settings: for Time 1 hr / Time 1 hr, Run-specific Avg: amount measured in plasma sample at 1 hr; for Time 1 hr / Time 5 hr: replicates A, B, C; for Time 1 hr / Time 1 hr, Run-specific Avg / Time 5 hr / Time 5 hr, Run-specific Avg: unit not given; for Time 1 hr, Run-specific Avg / Time 5 hr, Run-specific Avg: run average; for Time 5 hr / Time 5 hr, Run-specific Avg: amount measured in plasma sample at 5 hr; for % remaining_PPB: chemical remaining in plasma over the PPB assay time course, NS = no significant loss; for PPB_Stab_Fail: flag for stability failure in the plasma protein binding assay (1 = fail, 0 = pass); for Fstable.Med: median fraction stable in plasma, UC assay Level4; for Stability (T5hr/ T1hr), replicates A, B, C: single replicate of one UC run
human plasma [3] = assay: Ultracentrifugation (UC) plasma protein binding assay, fraction unbound in plasma (fup); settings: for Aqueous Fraction / Aqueous Fraction, Run-specific Avg: amount measured in aqueous fraction after ultracentrifugation, unit not given; for Aqueous Fraction: replicates A, B, C; for Aqueous Fraction, Run-specific Avg: run average; for Fup.Med: median fraction unbound in plasma; for Fup.Med / Fup.point: UC assay Level4; for Fup.point: point estimate of fraction unbound in plasma; for Fraction Unbound (fu), replicates A, B, C: single replicate of one UC run (aqueous fraction / Time 5 hr); for Mean fu: fraction unbound in human plasma, some values based on eLOQ; for Mean Fu: mean fraction unbound over all replicates and runs, UC assay
[4] = Fraction Unbound (fu), Run-specific Avg, average of one UC run
[5] = Fraction Unbound (fu), individual replicates A, B, C of the UC run named in c8
[6] = Mean Fu, mean fraction unbound in human plasma over all UC replicates/runs
[7] = Mean fu, fraction unbound in human plasma, ultracentrifugation, some values based on eLOQ
[8] = mean T5hr/T1hr ratio in plasma over all replicates/runs
[9] = Fraction Unbound (fu), Run-specific Avg, average of one UC run (run date in line above)
[10] = Mean Fu, mean fraction unbound over all replicates and runs, UC assay, human plasma
[11] = average of one UC run (run date in line above)
[12] = mean T5hr/T1hr ratio over all replicates and runs, plasma
[13] = Fraction Unbound (fu), replicates A, B, C, single replicate of one UC run (aqueous fraction / Time 5 hr)
[14] = mean over all UC runs and replicates, human plasma

Row | Compound | Hep_Stab_Fail [1] | fraction unbound (in vitro; [7]) | Time 1 hr (human plasma [2]) | Time 1 hr, Run-specific Avg (human plasma [2]) | Time 5 hr (human plasma [2]) | Time 5 hr, Run-specific Avg (human plasma [2]) | Stability (T5hr/ T1hr), Run-specific Avg (human plasma [2]; average of one UC run) | % remaining_PPB (human plasma [2]) [%] | PPB_Stab_Fail (human plasma [2]) | Mean Stability (human plasma [2]; [8]) | Fstable.Med (human plasma [2]) | Aqueous Fraction (human plasma [3]) | Aqueous Fraction, Run-specific Avg (human plasma [3]) | Fup.Med (human plasma [3]) | Fup.point (human plasma [3]) | Stability (T5hr/ T1hr), Run-specific Avg (human plasma [2]; [11]) | Mean Stability (human plasma [2]; [12]) | Stability (T5hr/ T1hr), replicates A, B, C (human plasma [2]) | Fraction Unbound (fu), replicates A, B, C (human plasma [3]) | Mean fu (human plasma [3]; ultracentrifugation) | further results
1 | FC(F)(Br)C(F)(F)C(F)(F)C(F)(F)C(F)(F)C(F)(F)Br [1,6-Dibromododecafluorohexane] | 1 | 0.004 | 8781.60 and 9238.06 and 11600.01 | 9873.23 | 4002.39 and 3732.26 and 4390.36 | 3867.32 | 0.392 | 40 | 0 | 0.415 | 0.312 | 16.97 | 16.97 | 1.78E-09 | 0 |  |  |  |  |  | fraction unbound (in vitro; [4]): 0.00422; fraction unbound (in vitro; [5]): 0.00424; fraction unbound (in vitro; [6]): 0.00422; fup (human plasma [3]; human plasma, 10 μM, ultracentrifugation, 37 °C): 0.004
2 | FC(F)(I)C(F)(F)C(F)(F)C(F)(F)C(F)(F)C(F)(F)I [1,6-Diiodoperfluorohexane] | 1 | 0.026 | 8774.08 and 7745.84 and 7383.58 | 7967.83 | 5893.98 and 5567.71 and 5583.03 | 5730.84 | 0.719 | 72 | 0 | 0.718 | 0.577 | 94.9667 and 176.609 and 162.022 | 144.53 | 0.295 | 0.267 | 0.687 | 0.685 | 0.7185 and 0.686 and 0.6511 | 0.5494 and 0.308 and 0.227 |  | fraction unbound (in vitro; [4]): 0.0256; fraction unbound (in vitro; [9]): 0.36; fraction unbound (in vitro; [5]): 0.0161; fraction unbound (in vitro; [10]): 0.361
3 | C=C(C)C(=O)OCC(F)(F)C(F)(F)C(F)(F)C(F)F [1H,1H,5H-Perfluoropentyl methacrylate] | 1 |  | 1599.93 and 1543.59 and 1278.91 | 1474.15 | 75.2443 and 72.767 and 69.0294 | 74.01 | 0.050 | 0.01 | 1 | 0.050 | 0.00623 | 25.8202 and 12.2631 and 16.0467 | 18.04 | 0.267 | 0.249 |  |  |  |  |  | fraction unbound (in vitro; [4]): 0.25; fraction unbound (in vitro; [6]): 0.248
4 | OCCCC(F)(F)C(F)(F)C(F)(F)C(F)(F)C(F)(F)C(F)(F)C(F)(F)C(F)(F)F [3-(Perfluorooctyl)propanol] | 1 | 0.0357 |  |  |  |  |  |  | 0 |  | 0.272 |  |  | 0.0348 | 0.0352 | 0.894 | 0.893 | 0.9156 and 0.9452 and 0.8196 | 0.03475 and 0.04477 |  | fraction unbound (in vitro; [13]): 0.0277; fraction unbound (in vitro; [10]): 0.036
5 | OCCCC(F)(F)C(F)(F)C(F)(F)F [3-(Perfluoropropyl)propanol] | 1 | 0.203 |  |  |  |  |  |  | 0 |  | 0.2 |  |  | 0.202 | 0.205 | 0.890 | 0.892 | 0.858 and 0.887 and 0.929 | 0.224 and 0.207 |  | fraction unbound (in vitro; [9]): 0.2; fraction unbound (in vitro; [13]): 0.179; fraction unbound (in vitro; [10]): 0.203
6 | OCC(F)(F)C(F)(F)C(F)(F)C(F)(F)C(F)(F)C(F)(F)C(F)(F)C(F)(F)C(F)(F)C(F)(F)C(F)(F)F [11:1 Fluorotelomer alcohol] | 1 |  | 16624.1 and 16003.4 and 18170.7 | 16932.71 | 8697.13 and 19831.5 and 16897.3 | 14264.32 | 0.842 | 100 | 0 | 0.909 | 0.341 | 595.593 and 1494.34 and 453.605 | 847.84 | 0.0578 | 0.0621 |  |  |  |  | 0.0570 | Fraction Unbound (fu), Run-specific Avg (human plasma [3]; average of one UC run): 0.0569
7 | C=C(C)C(=O)OCCC(F)(F)C(F)(F)C(F)(F)C(F)(F)C(F)(C(F)(F)F)C(F)(F)F [(Perfluoro-5-methylhexyl)ethyl 2-methylprop-2-enoate] | 1 | 0.0603 |  |  |  |  |  | 63.6 |  |  | 0.43 |  |  | 4.30E-06 | 0.0603 |  |  |  |  |  | 
8 | OCC(F)(F)C(F)(F)C(F)(F)CO [Hexafluoroamylene] |  |  | 5856.63 and 5544.86 and 5920.14 | 5773.88 | 3672.88 and 3626.61 and 3711.47 | 3649.75 | 0.632 |  |  | 0.636 | 0.988 | 160.563 and 273.771 and 229.145 | 221.16 | 0.627 | 0.675 |  |  |  |  |  | fraction unbound (in vitro; [4]): 0.06; fraction unbound (in vitro; [5]): 0.0437; fraction unbound (in vitro; [6]): 0.06
9 | CN(C(=O)C(F)(F)C(F)(F)C(F)(F)F)[Si](C)(C)C [N-Methyl-N-trimethylsilylheptafluorobutyramide] | 1 |  |  |  |  |  |  |  | 0 |  | 0.274 |  |  | 0.532 | 0.545 | 0.935 | 0.935 | 0.978 and 0.906 and 0.921 | 0.507 and 0.525 and 0.603 | 0.5451 | Fraction Unbound (fu), Run-specific Avg (human plasma [3]; [11]): 0.55; Mean Fu (human plasma [3]; human plasma): 0.545
10 | NC(=O)C(F)(F)C(F)(F)C(F)(F)C(F)(F)C(F)(F)C(F)(F)C(F)(F)F [Perfluorooctanamide] | 1 |  |  |  |  |  |  |  | 0 |  | 0.738 |  |  | 0.0252 | 0.0263 |  |  |  |  | 0.0282 | Mean Stability (T5hr/T1hr) (human plasma [2]; [14]): 0.838; Stability (T5hr/ T1hr), Run-specific Avg (human plasma [2]; run-specific average): 0.841; Mean Fu (fraction unbound) (human plasma [3]; [14]): 0.028; Fraction Unbound (fu), Run-specific Avg (human plasma [3]; run-specific average): 0.0266
11 | N=C(N)C(F)(F)C(F)(F)C(F)(F)C(F)(F)C(F)(F)C(F)(F)C(F)(F)F [Perfluorooctanamidine] | 1 |  |  |  |  |  |  | 67 | 0 |  | 0.0291 |  |  | 4.95E-09 | 0.0261 | 0.890 | 0.892 | 0.858 and 0.887 and 0.929 |  | 0.0253 | 
12 | FC(F)(F)COC(OCC(F)(F)F)OCC(F)(F)F [tris(Trifluoroethoxy)methane] | 1 |  |  |  |  |  |  | 66 | 0 |  | 0.362 |  |  | 0.132 | 0.0994 | 0.660 | 0.662 | 0.6799 and 0.6407 and 0.6662 | 0.186 and 0.1626 and 0.1699 | 0.1728 | Fraction Unbound (fu), Run-specific Avg (human plasma [3]; [11]): 0.17; Mean Fu (human plasma [3]; human plasma): 0.173
